Among the data in ChEMBL document CHEMBL1135031, “Sequestration of bacterial lipopolysaccharide by bis(Args) gemini compounds” (Bioorg Med Chem Lett, 2002) are Lethality, EC50 and Lethal dose values, retold here.

The subject of data set [1] is Mus musculus. Nature of the data set: Tested for protective effect in D-galactosamine (800 mg/kg) sensitized mice injected with lipopolysaccharides at 0 ng/mouse and compound dose of 40 ug/mouse (ip); 0/5 (dead/ Total mice). Format: functional.
Another data set has as its system J774.A1. The data set is described as follows: Inhibition of TNF-a production by J774.A1 cells stimulated for 18 hr with Escherichia coli O111:B4 LPS (25 ng/mL). Format: functional. Conditions: Mus musculus, J774.A1, 18 h; read-out: ED50 (the source's name).
Data set [2] deals with Mus musculus. The data set is described as follows: Tested for protective effect in D-galactosamine (800 mg/kg) sensitized mice injected with lipopolysaccharides at 20 ng/mouse and compound dose of 0 ug/mouse (ip); 5/5 (dead/ Total mice). It counts as functional.
Data set [3] concerns Mus musculus. The data set is described as follows: Tested for protective effect in D-galactosamine (800 mg/kg) sensitized mice injected with lipopolysaccharides at 0 ng/mouse and compound dose of 10 ug/mouse (ip); 0/5 (dead/ Total mice). Format: functional.
Data set [4] concerns Mus musculus. Nature of the data set: Tested for protective effect in D-galactosamine (800 mg/kg) sensitized mice injected with lipopolysaccharides at 20 ng/mouse and compound dose of 40 ug/mouse (ip); 0/10 (dead/ Total mice). Format: functional.
The test system of data set [5] is Mus musculus. The data set is described as follows: Tested for protective effect in D-galactosamine (800 mg/kg) sensitized mice injected with lipopolysaccharides at 20 ng/mouse and compound dose of 10 ug/mouse (ip); 7/10 (dead/ Total mice). Format: functional.
Data set [6] has as its system Mus musculus. Nature of the data set: Tested for protective effect in D-galactosamine (800 mg/kg) sensitized mice injected with lipopolysaccharides at 40 ng/mouse and compound dose of 0 ug/mouse (ip); 5/5 (dead/ Total mice). It counts as functional.
In data set [7] the test system is Mus musculus. Nature of the data set: Tested for protective effect in D-galactosamine (800 mg/kg) sensitized mice injected with lipopolysaccharides at 40 ng/mouse and compound dose of 10 ug/mouse (ip); 9/10 (dead/ Total mice). It counts as functional.
Data set [8] deals with Mus musculus. The data set is described as follows: Tested for protective effect in D-galactosamine (800 mg/kg) sensitized mice injected with lipopolysaccharides at 40 ng/mouse and compound dose of 40 ug/mouse (ip); 6/10 (dead/ Total mice). Format: functional.
The nature of data set [9]: Dose that resulted in 100% lethality in murine model of CF-1 mice. Format: ADME. Conditions: mouse, in vivo.

The structures appear in SMILES notation. Converted amounts (≈) assume the structure as drawn.

Take `CCCCCCCCCCCC(=O)N[C@@H](CCCN=C(N)N)C(=O)NCCCCCCCCCNC(=O)[C@H](CCCN=C(N)N)NC(=O)CCCCCCCCCCC`: the Lethality with Mus musculus [1] is 0; in the data set with Mus musculus [2], 5; with Mus musculus [3], 0; with Mus musculus [4], 0; with Mus musculus [5] it was 7; in the data set on Mus musculus [6], 5. In addition, the Lethality in the data set on Mus musculus [7] turned out to be 9; in the data set on Mus musculus [8] it was 6. Moreover, in the data set with J774.A1, the EC50 is 2.5 µg/mL (≈ 2.99 µM). Moreover, in [9], the Lethal dose amounted to 10 ng/mL.
`CCCCCCCCCCCC(=O)N[C@@H](CCCN=C(N)N)C(=O)NCCCCCCNC(=O)[C@H](CCCN=C(N)N)NC(=O)CCCCCCCCCCC`: the EC50 in the data set with J774.A1 was determined as 1.4 µg/mL (≈ 1.77 µM).
